Data reported in the supplement of paper PMC9512659.

Assays:
[1] = system: Mycobacterium tuberculosis Erdman (pMV306hsp+LuxG13); test: AUC25, normalised area under the dose-response curve up to IC25 (normalised AUC (unitless)); higher = more potent
Protocol: (§1)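 DiaMOND pairwise dose responses of an equipotent two-drug mixture (1.5-fold, 10-dose series) against autoluminescent M. tuberculosis Erdman in 384-well plates. Growth inhibition was read by OD600 (luminescence for dormancy) in seven media at a constant and a terminal time point; metrics are means of at least biological duplicates. Einf and AUC25 higher = more potent; GRinf lower = more potent; log2FIC negative = synergy.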

[2] = system: Mycobacterium tuberculosis Erdman (pMV306hsp+LuxG13); test: log2 fractional inhibitory concentration at 50% inhibition (log2 FIC); higher = more antagonistic
Protocol: as §1

[3] = system: Mycobacterium tuberculosis Erdman (pMV306hsp+LuxG13); test: log2 fractional inhibitory concentration at 90% inhibition (log2 FIC); higher = more antagonistic
Protocol: as §1

[4] = system: Mycobacterium tuberculosis Erdman (pMV306hsp+LuxG13); test: GRinf, normalised growth-rate inhibition at infinite dose (GR value (unitless, negative = killing)); higher = less potent
Protocol: as §1

[5] = system: Mycobacterium tuberculosis Erdman (pMV306hsp+LuxG13); test: Einf, effect of the drug pair at infinite dose (maximum growth inhibition) (fraction inhibition (0-1)); higher = more potent; extreme values may be limits of the assay
Protocol: as §1

CO[C@H]1/C=C/O[C@@]2(C)Oc3c(C)c(O)c4c(O)c(c(/C=N/N5CCN(C)CC5)c(O)c4c3C2=O)NC(=O)/C(C)=C\C=C\[C@H](C)[C@H](O)[C@@H](C)[C@@H](O)[C@@H](C)[C@H](OC(C)=O)[C@@H]1C [rifampicin] + CC(C)=CCC/C(C)=C/CNCCNC1C2CC3CC(C2)CC1C3 [SQ109]
Conditions	AUC25, [1]	Einf, [5]	GRinf, [4]	log2 fractional inhibitory concentration, [2]	log2 fractional inhibitory concentration, [3]
growth medium: butyrate 5 mM, time point: constant time point	0.0902	0.914	-0.0141	0.188	–
growth medium: butyrate 5 mM, time point: terminal time point	0.0763	0.959	-0.032	0.0743	-0.456
growth medium: cholesterol 0.2 mM (cholesterol-high), time point: constant time point	0.03	0.992	-0.905	0.231	-0.46
growth medium: cholesterol 0.2 mM (cholesterol-high), time point: terminal time point	0.0325	0.999	-0.83	0.286	-0.383
growth medium: standard 7H9 OADC glycerol, time point: constant = terminal time point (4.2 d)	0.0536	0.909	0.0752	0.0639	–
growth medium: valerate 0.1%, time point: constant time point	0.0301	0.956	0.0222	-0.112	-0.583
growth medium: valerate 0.1%, time point: terminal time point	0.0271	0.962	0.0133	-0.128	-0.625

growth medium: hypoxic dormancy (butyrate + nitrate), then recovery
Conditions	AUC25, [1]	Einf, [5]	GRinf, [4]	log2 fractional inhibitory concentration, [2]	log2 fractional inhibitory concentration, [3]
time point: constant time point	0.0556	0.984	-0.371	-1.51	-1.97
time point: terminal time point	0.0342	0.964	0.12	-0.863	-1.05

CC[C@@H](CO)NCCN[C@@H](CC)CO [ethambutol] + CC(=O)NC[C@H]1CN(c2ccc(N3CCSCC3)c(F)c2)C(=O)O1 [sutezolid]
Conditions	AUC25, [1]	Einf, [5]	GRinf, [4]	log2 fractional inhibitory concentration, [2]	log2 fractional inhibitory concentration, [3]
growth medium: acidic pH 5.7, glycerol, time point: constant time point	0.122	0.837	-0.0739	-0.476	–
growth medium: acidic pH 5.7, glycerol, time point: terminal time point	0.0981	0.989	-0.214	0.638	0.0843
growth medium: butyrate 5 mM, time point: constant time point	0.0681	0.911	0.0455	0.936	–
growth medium: butyrate 5 mM, time point: terminal time point	0.0502	0.954	0.0337	0.703	-0.108
growth medium: cholesterol 0.05 mM, time point: constant time point	0.121	1	-1	0.779	-0.482
growth medium: cholesterol 0.05 mM, time point: terminal time point	0.104	1	-0.945	-0.083	-1.28
growth medium: cholesterol 0.2 mM (cholesterol-high), time point: constant time point	0.0903	1	-1	-0.151	–
growth medium: cholesterol 0.2 mM (cholesterol-high), time point: terminal time point	0.109	1	-0.852	-0.578	-0.0598
growth medium: standard 7H9 OADC glycerol, time point: constant = terminal time point (4.2 d)	0.0717	0.982	-0.118	0.607	0.432
growth medium: valerate 0.1%, time point: constant time point	0.132	0.931	-1	-0.351	–
growth medium: valerate 0.1%, time point: terminal time point	0.0852	0.975	-0.02	0.139	0.287

growth medium: hypoxic dormancy (butyrate + nitrate), then recovery
Conditions	AUC25, [1]	Einf, [5]	GRinf, [4]	log2 fractional inhibitory concentration, [2]	log2 fractional inhibitory concentration, [3]
time point: constant time point	0.0614	0.989	-0.104	0.45	–
time point: terminal time point	0.0966	0.979	-0.187	1.4	0.341

NNC(=O)c1ccncc1 [isoniazid] + CC(=O)NC[C@H]1CN(c2ccc(N3CCSCC3)c(F)c2)C(=O)O1 [sutezolid]
Conditions	AUC25, [1]	Einf, [5]	GRinf, [4]	log2 fractional inhibitory concentration, [2]	log2 fractional inhibitory concentration, [3]
growth medium: acidic pH 5.7, glycerol, time point: constant time point	0.0914	0.846	-0.123	0.123	–
growth medium: acidic pH 5.7, glycerol, time point: terminal time point	0.0816	0.972	-0.174	0.103	-0.00954
growth medium: butyrate 5 mM, time point: constant time point	0.0778	0.901	0.0944	0.357	–
growth medium: butyrate 5 mM, time point: terminal time point	0.0468	0.944	0.104	0.264	0.0935
growth medium: cholesterol 0.05 mM, time point: constant time point	0.026	0.988	-0.536	0.559	-0.209
growth medium: cholesterol 0.05 mM, time point: terminal time point	0.113	1	-1	0.493	0.0381
growth medium: cholesterol 0.2 mM (cholesterol-high), time point: constant time point	0.0844	0.994	-0.83	0.0991	0.448
growth medium: cholesterol 0.2 mM (cholesterol-high), time point: terminal time point	0.119	1	-0.942	-0.302	0.592
growth medium: standard 7H9 OADC glycerol, time point: constant = terminal time point (4.2 d)	0.0428	0.956	0.0933	-0.00832	-0.586
growth medium: valerate 0.1%, time point: constant time point	0.0744	0.872	-0.342	1.2	–
growth medium: valerate 0.1%, time point: terminal time point	0.0761	0.982	-0.0769	0.633	0.724

growth medium: hypoxic dormancy (butyrate + nitrate), then recovery
Conditions	AUC25, [1]	Einf, [5]	GRinf, [4]	log2 fractional inhibitory concentration, [2]	log2 fractional inhibitory concentration, [3]
time point: constant time point	0.0513	0.987	0.3	0.243	-0.281
time point: terminal time point	0.0273	0.958	0.448	0.741	-0.485

CC(C)/N=c1\cc2n(-c3ccc(Cl)cc3)c3ccccc3nc-2cc1Nc1ccc(Cl)cc1 [clofazimine] + CC(=O)NC[C@H]1CN(c2ccc(N3CCSCC3)c(F)c2)C(=O)O1 [sutezolid]
Conditions	AUC25, [1]	Einf, [5]	GRinf, [4]	log2 fractional inhibitory concentration, [2]	log2 fractional inhibitory concentration, [3]
growth medium: acidic pH 5.7, glycerol, time point: constant time point	0.101	0.875	0.0525	0.684	–
growth medium: acidic pH 5.7, glycerol, time point: terminal time point	0.108	0.981	-0.188	-0.139	-0.457
growth medium: butyrate 5 mM, time point: constant time point	0.0828	0.911	0.00728	-1.05	–
growth medium: butyrate 5 mM, time point: terminal time point	0.0725	0.961	-0.00637	-1.03	-1.04
growth medium: cholesterol 0.05 mM, time point: constant time point	0.112	1	-1	-0.848	-0.263
growth medium: cholesterol 0.05 mM, time point: terminal time point	0.125	1	-0.651	-1.5	-0.782
growth medium: cholesterol 0.2 mM (cholesterol-high), time point: constant time point	0.1	0.983	-0.741	-0.164	-0.0175
growth medium: cholesterol 0.2 mM (cholesterol-high), time point: terminal time point	0.116	1	-0.833	-0.588	-0.392
growth medium: standard 7H9 OADC glycerol, time point: constant = terminal time point (4.2 d)	0.0934	0.967	-0.00824	-0.402	-0.528
growth medium: valerate 0.1%, time point: constant time point	0.118	0.949	-0.364	0.279	–
growth medium: valerate 0.1%, time point: terminal time point	0.0261	0.967	0.184	0.564	-1.6

growth medium: hypoxic dormancy (butyrate + nitrate), then recovery
Conditions	AUC25, [1]	Einf, [5]	GRinf, [4]	log2 fractional inhibitory concentration, [2]	log2 fractional inhibitory concentration, [3]
time point: constant time point	0.0485	0.988	0.181	-0.185	-0.341
time point: terminal time point	0.0291	0.974	0.351	0.178	-0.881
